According to PMC10180428, “α-Glucosidase Inhibitors from Two Mangrove-Derived Actinomycetes” (Molecules, 2023):
Read-outs that look alike come from different tables or passages of the source.

How the values were obtained:
[1] = In vitro cytotoxicity MTT assay; type: cell-based; details: human
Protocol: To preliminarily evaluate the safety of the AGS inhibitors, the in vitro cytotoxicity of 3, 8, 9, 11, 14, 16, and 17 toward human normal hepatocyte (LO2) cells was tested by MTT assay. […] Since cancer and diabetes are linked, these compounds need to be evaluated for cytotoxicity against a panel of cancer cell lines to assess their safety profile at least in vitro in future studies.
The LO2 cell line was cultured in a 1640 medium supplemented with 10% fetal bovine serum, 100 U/mL of penicillin, and 0.1 mg/mL of streptomycin in a humidified incubator with a 5% CO2 atmosphere at 37 °C. The cells were seeded in 96-well plates at a density of 3 × 10^3 cells per well. After 12 h, the medium in the wells was replaced by 100 µL of fresh medium containing drugs of six different concentrations. After incubation for another 48 h, the medium was removed and the fresh medium containing 10 µL of MTT (5 mg/mL) were added to each well and incubated for 4 h. Then, the medium was replaced by 100 µL of DMSO to dissolve the formazan crystals. OD570 was detected on a microplate reader. Parallel triplicate replication was performed for each dose, and the IC50 values were calculated.

α-Glucosidase (AGS) [2] = biological target: T1, α-Glucosidase (AGS) (Saccharomyces cerevisiae, UniProt P53341); assay: Inhibition kinetics analysis (Lineweaver–Burk plots and secondary plots); type: biochemical; details: for inhibition type against AGS: Lineweaver–Burk plots
T1 sequence (P53341 whole entry): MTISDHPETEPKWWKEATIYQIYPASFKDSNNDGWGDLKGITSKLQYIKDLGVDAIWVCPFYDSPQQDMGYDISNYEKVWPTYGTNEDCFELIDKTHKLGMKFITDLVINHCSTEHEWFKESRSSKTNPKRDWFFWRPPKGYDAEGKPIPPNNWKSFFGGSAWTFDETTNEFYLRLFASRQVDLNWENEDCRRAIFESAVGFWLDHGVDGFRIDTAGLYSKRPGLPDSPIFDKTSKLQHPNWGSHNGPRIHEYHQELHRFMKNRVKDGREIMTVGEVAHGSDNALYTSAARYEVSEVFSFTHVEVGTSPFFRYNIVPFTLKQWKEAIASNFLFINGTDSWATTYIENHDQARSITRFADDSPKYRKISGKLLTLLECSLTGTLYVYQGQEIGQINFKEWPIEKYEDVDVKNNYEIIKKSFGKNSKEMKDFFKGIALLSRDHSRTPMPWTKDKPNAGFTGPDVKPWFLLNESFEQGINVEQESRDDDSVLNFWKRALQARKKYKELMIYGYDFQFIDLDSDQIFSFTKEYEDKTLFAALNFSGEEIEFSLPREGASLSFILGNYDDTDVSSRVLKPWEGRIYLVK
Protocol: Although several 2,5-DKP containing cyclodipeptides have been reported to inhibit the activity of AGS to different extents, little is known on the inhibition kinetics of these inhibitors. Herein, the inhibition kinetic mechanisms of 3, 8, 9, 11, 14, 16, and 17 against AGS were analyzed using the Lineweaver–Burk plots. The inhibition constants Ki and Ki’ of the inhibitors were calculated by secondary plots of “slope versus [I]” and “Y-intercept versus [I]”, respectively. […] This postulation was reinforced by the varied Km/Vmax values which were not in accordance with uncompetitive inhibition. However, the replots of the slope and y-intercept versus the concentration of 14 and 17 were not linearly fitted, which limited the application of Equations (3) and (4). […] It was interesting that seven cyclodipeptide congeners tended to inhibit the activity of AGS in four different manners, which was proposed to be caused by different substitutions on the 2,5-DKP moiety.
The mode of inhibition was determined by the Lineweaver–Burk plot using GraphPad Prism 8.0 software. The Km and Vmax values were obtained from the slope and y-axis intercept of the Lineweaver–Burk plot based on Equations (1) and (2):(1) Vmax=1/Y-intercept (2) Km=slope× Vmax
The Ki and Ki’ values were calculated by secondary plotting of the slope and y-intercept on the Lineweaver–Burk plot versus the inhibitor [I] based on Equations (3) and (4):(3) Slope=Km/Vmax+Km[I]/VmaxKi (4) Y-intercept=1/Vmax+[I]/VmaxKi^′

α-Glucosidase (AGS) [3] = biological target: T1, α-Glucosidase (AGS); assay: biochemical; details: read-out: AGS inhibitory activity IC50
Protocol: The AGS inhibitory activity was evaluated following the methods reported in the literature.

[4] = inhibitor concentration 0.04 mM
[5] = inhibitor concentration 0.06 mM
[6] = inhibitor concentration 0.08 mM
[7] = secondary plot of Y-intercept versus [I], binding to AGS-substrate complex, read-out: Ki
[8] = inhibitor concentration 0.05 mM
[9] = inhibitor concentration 0.10 mM
[10] = inhibitor concentration 0.07 mM
[11] = inhibitor concentration 0.09 mM

SMILES | IC50 at 48 h [1] | inhibition type against AGS (α-Glucosidase (AGS) [2]) | Vmax (α-Glucosidase (AGS) [2]; [4]) | Vmax (α-Glucosidase (AGS) [2]; [5]) | Vmax (α-Glucosidase (AGS) [2]; [6]) | Ki (α-Glucosidase (AGS) [2]; [7]) | Ki (α-Glucosidase (AGS) [2]; secondary plot of slope versus [I], binding to free AGS, read-out: Ki) | IC50 (α-Glucosidase (AGS) [3]) | Ki (α-Glucosidase (AGS) [2]) | Vmax (α-Glucosidase (AGS) [2]; [8]) | Vmax (α-Glucosidase (AGS) [2]; [9]) | IC50 at 48 h ([1]; LO2 cells (human normal hepatocyte cell line), MTT, 48 h incubation, read-out: Cytotoxicity IC50 against LO2 cells) | Vmax (α-Glucosidase (AGS) [2]; inhibitor concentration 0.02 mM) | Vmax (α-Glucosidase (AGS) [2]; inhibitor concentration 0.03 mM) | Vmax (α-Glucosidase (AGS) [2]; [10]) | Vmax (α-Glucosidase (AGS) [2]; [11]) | Vmax (α-Glucosidase (AGS) [2]; inhibitor concentration 0.20 mM)
COC1CCC=C(C)C(=O)Nc2cc(O)cc(c2)CC(C)CC(OC)C(O)C(C)C=C(C)C1OC(N)=O (stereo not shown) [Compound 3, autolytimycin] | > 100 µM | non-competitive inhibitors | 0.86 ± 0.03 µM/min | 0.67 ± 0.04 µM/min | 0.46 ± 0.03 µM/min | 53.10 µM | 49.2 µM | 35.8 ± 0.4 µM | – | – | – | – | – | – | – | – | –
CC[C@H](C)[C@@H]1NC(=O)[C@H](CC(C)C)NC1=O [Compound 16, cyclo(L-Leu-L-Ile)] | > 100 µM | mixed-type manner | – | – | 0.86 ± 0.11 µM/min | 78.89 µM | – | 74 ± 1.25 µM | 59.8 µM | 1.07 ± 0.13 µM/min | 0.74 ± 0.07 µM/min | – | – | – | – | – | –
O=C1N[C@@H](Cc2c[nH]c3ccccc23)C(=O)N2CCC[C@@H]12 [Compound 8, cyclo(L-Pro-L-Trp)] | – | non-competitive inhibitors | – | – | 0.41 ± 0.03 µM/min | 46.28 µM | – | 53.8 ± 1.88 µM | 43.9 µM | – | – | > 100 µM | 0.85 ± 0.05 µM/min | 0.66 ± 0.03 µM/min | – | – | –
C[C@@H]1NC(=O)[C@@H]2CCCN2C1=O [Compound 17, cyclo(L-Ala-L-Pro)] | > 100 µM | non-competitive and uncompetitive mixed-type of inhibition | – | 0.79 ± 0.02 µM/min | – | – | – | 56.75 ± 0.32 µM | – | – | – | – | – | – | 0.66 ± 0.03 µM/min | 0.47 ± 0.01 µM/min | –
CC[C@H](C)[C@@H]1NC(=O)[C@H](Cc2ccc(O)cc2)NC1=O [Compound 11, cyclo(L-Ile-L-Tyr)] | > 100 µM | mixed-type manner | – | 0.98 ± 0.05 µM/min | – | 531.53 µM | – | 101 ± 2.52 µM | 95.5 µM | – | – | – | – | – | 0.94 ± 0.02 µM/min | 0.90 ± 0.05 µM/min | –
O=C1N[C@@H](Cc2c[nH]c3ccccc23)C(=O)N[C@H]1CO [Compound 9, cyclo(L-Ser-L-Trp)] | > 100 µM | mixed-type manner | – | – | 1.11 ± 0.14 µM/min | 238.78 µM | – | 164 ± 15.5 µM | 149 µM | 1.33 ± 0.17 µM/min | – | – | – | – | – | – | 0.89 ± 0.22 µM/min
O=C1NC(Cc2ccccc2)C(=O)NC1CO [Compound 14, cyclo(L-Ser-L-Phe)] | > 100 µM | competitive inhibitor | 0.81 ± 0.06 µM/min | – | – | – | – | 62.2 ± 0.11 µM | – | – | 0.83 ± 0.18 µM/min | – | – | – | – | 0.76 ± 0.04 µM/min | –
